Data as given in patent US11197891B2, “Therapies with lanthionine C-like protein 2 ligands and cells prepared therewith” (Landos Biopharma, Inc., priority 2017, dated 2021).
pKd: −log10 of the molar value. Entries after “also recorded” stand apart in the source; their conditions may differ.

Key:
[1] = test system: Naïve CD4+ T cells; test: Differentiation of naïve CD4+ T cells into Tregs with IL-2 or IL-12 (flow cytometry); format: cell-based, mice; settings: media containing IL-2 or IL-12, inhibitor SF1670 or STAT5i
Description: Naïve CD4+ T cells were isolated from the spleens of mice by magnetic sorting. The isolated cells were incubated in anti-CD3/anti-CD28 coated 96 well plates in Treg differentiation media. The Treg differentiation media was Iscove's Modified Dulbecco's Medium (IMDM) media (ThermoFisher Scientific) supplemented with fetal bovine serum, HEPES, penicillin/streptomycin, L-glutamine, and differentiation agents. The Treg differentiation agents were 10 nM all-trans-retinoic acid and 5 ng/mL TGF-β. Additional experiments were conducted comparing differentiation in the Treg differentiation media with and without the addition of 10 ng/mL IL-2 or IL-12. […] Prior to assay, cells were stimulated with PMA and ionomycin for 6 hours.
Colonic lamina propria lymphocytes and cultured cells were plated in 96 well plates (6×10^5 cells/well) and processed for immunophenotyping by flow cytometry as previously described. Briefly, cells were incubated with fluorochrome conjugated antibodies to extracellular markers: CD45, CD4, CD3, CD25, CD8. Samples needing a secondary staining were incubated with secondary antibodies, or streptavidin-conjugated fluorochrome. The samples were then fixed and permeabilized. Cells were incubated with antibodies to intracellular markers: Tbet, IFNγ, IL10, FOXP3, IL17, RORγT. Data was acquired with a BD FACS Celesta flow cytometer and analyzed using FACS Diva software (BD Pharmingen). […]

[2] = test system: CD4+ T cells; test: Differentiation of CD4+ T cells into Tregs with metabolic modulators; format: cell-based, mice; settings: BT-11 with PS-48 (5 μM), DASA-58 (10 μM) or thapsigargin (10 nM)
Description: (§1) Spleens from WT and Lancl2−/− mice were excised and crushed to generate a single cell suspension. CD4+ T cell fraction was enriched by negative selection via magnetic sorting with the BD IMag system. Naïve CD4+ T cells were obtained by incubation with a biotinylated CD62L antibody followed by conjugation to streptavidin coated magnetic beads. Naïve cells were incubated for 48 hours within anti-CD3 coated tissue culture plates in complete IMDM media containing all-trans retinoic acid and purified TGF-β to stimulate differentiation into Tregs. […] Metabolic modulators, PS-48 (5 μM), DASA-58 (10 μM), and thapsigargin (10 nM), were added at 0 h. […] Six hours prior to assay, cells were stimulated with PMA and ionomycin. Cells were collected from plate for downstream analysis by flow cytometry, gene expression and metabolic assay.

[3] = test system: CD4+ T cells co-cultured with in vitro differentiated Tregs; test: Co-assay of CD4+ T cells and BT-11 pre-treated Treg cells; format: cell-based, mice
Description: as §1
After two days cells were collected and plated with freshly collected CFSE-labeled CD4+ T cells.

[4] = target: T1, LANCL2 (Homo sapiens, UniProt Q9NS86); test: Surface plasmon resonance (SPR) binding to LANCL2; settings: Tables 1A and 1B; read-out: SPR Affinity to LANCL2 (Kd)
T1 sequence (Q9NS86 1-450): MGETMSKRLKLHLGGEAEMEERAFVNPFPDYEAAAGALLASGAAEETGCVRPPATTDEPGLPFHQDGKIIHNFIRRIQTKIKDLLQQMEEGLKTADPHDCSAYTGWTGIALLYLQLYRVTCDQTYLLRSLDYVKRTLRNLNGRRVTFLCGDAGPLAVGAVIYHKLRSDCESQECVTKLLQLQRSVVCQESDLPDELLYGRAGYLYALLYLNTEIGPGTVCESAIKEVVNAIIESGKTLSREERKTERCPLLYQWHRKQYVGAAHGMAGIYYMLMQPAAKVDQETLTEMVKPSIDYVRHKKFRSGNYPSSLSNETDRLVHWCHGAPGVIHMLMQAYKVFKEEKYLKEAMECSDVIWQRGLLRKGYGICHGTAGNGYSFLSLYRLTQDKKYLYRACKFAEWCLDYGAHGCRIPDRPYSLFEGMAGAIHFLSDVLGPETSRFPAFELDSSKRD

[5] = test system: Lancl2ΔT and Lancl2-expressing control mice challenged with DSS; test: DSS model of colitis; format: in vivo
[6] = test system: in vitro differentiated Tregs; test: Gene expression of Treg stability genes in in vitro differentiated Tregs; format: cell-based, mice; settings: WT Tregs
Description: Total RNA from colon and cells was generated using the Qiagen RNeasy mini kit. cDNA was generated using the BioRad iScript cDNA synthesis kit. Standard curves were generated by serial dilution of purified product from a standard PCR reaction with Taq DNA polymerase followed by purification using the Qiagen MinElute PCR purification kit. Expression levels were obtained from quantitative real-time PCR with SybrGreen supermix on a BioRad CFX96 Thermal cycler followed by normalization to expression of β-actin as described previously [33].
Spleens from WT and Lancl2−/− mice were excised and crushed to generate a single cell suspension. CD4+ T cell fraction was enriched by negative selection via magnetic sorting with the BD IMag system. Naïve CD4+ T cells were obtained by incubation with a biotinylated CD62L antibody followed by conjugation to streptavidin coated magnetic beads. Naïve cells were incubated for 48 hours within anti-CD3 coated tissue culture plates in complete IMDM media containing all-trans retinoic acid and purified TGF-β to stimulate differentiation into Tregs [18]. […] Metabolic modulators, PS-48 (5 μM), DASA-58 (10 μM), and thapsigargin (10 nM), were added at 0 h. […] Six hours prior to assay, cells were stimulated with PMA and ionomycin. Cells were collected from plate for downstream analysis by flow cytometry, gene expression and metabolic assay. […]

[7] = test system: Mdr1a−/− mice; test: Mdr1a−/− model of colitis (IBD); format: in vivo
Description: Mdr1a−/− model. Mdr1a−/− mice develop spontaneous colitis. […] Mice were weighed and scored weekly to monitor the development of colitis. At 10 weeks of age, Mdr1a−/− were sacrificed for the collection of tissue for downstream assay. DSS model. Lancl2^ΔT and Lancl2-expressing controls were given dextran sulfate sodium in drinking water for seven days. Following seven days, standard drinking water was returned. Mice were weighed and scored daily. Mice were euthanized for tissue collection at 7 and 10 days of experimental timeline. Adoptive transfer model. WT and Lancl2−/− donor spleens were crushed and enriched for CD4+ fraction by magnetic sorting. CD4+CD45RB^hiCD25− (Teff) and CD4+CD45RB^loCD25+ (Treg) cells were sorted by a FACSAria cell sorter. Based on indicated experimental group, Rag2−/− recipient mice received 4×10^5 Teff and 1×10^5 Treg cells from WT or Lancl2−/− origin by intraperitoneal injection. […] Mice were weighed and scored weekly until euthanasia at 8 weeks post-transfer.
Colons and mesenteric lymph nodes (MLN) were collected into RPMI/FBS buffer containing collagenase (300U/mL) and DNase (50U/mL) for digestion. Following filtration of the resulting single cell suspensions, immune cells were purified by Percoll gradient. Cells were labeled with mixtures of extracellular (CD45, CD3, CD4, CD8, CD19, NK1.1, CD25, F4/80, CD11b, CX3CR1, CD64) and intracellular (Tbet, RORγT, FOXP3, IFNγ, IL17, IL10) antibodies in a sequential live staining in 96-well plates. Data was acquired using a FACS Celesta flow cytometer with FACSDiva software.
Total RNA from colon and cells was generated using the Qiagen RNeasy mini kit. cDNA was generated using the BioRad iScript cDNA synthesis kit. Standard curves were generated by serial dilution of purified product from a standard PCR reaction with Taq DNA polymerase followed by purification using the Qiagen MinElute PCR purification kit. Expression levels were obtained from quantitative real-time PCR with SybrGreen supermix on a BioRad CFX96 Thermal cycler followed by normalization to expression of β-actin as described previously.
H&E stained colonic sections were prepared from portions of colons collected into 10% buffered formalin and embedded in paraffin. Slides were examined by a board-certified veterinary pathologist via an Olympus microscope and images were collected with Image-Pro software. Samples were scored (0-4) for leukocytic infiltration, epithelial erosion and mucosal thickening.

[8] = test system: PBMCs from Crohn's disease donors; test: PBMCs isolated from Crohn's disease donors, 24 hour culture; format: cell-based, human
Description: (§2) Fresh de-identified whole blood was obtained from commercial vendor. Blood was diluted and purified for PBMC fraction by LeukoSep tube. Remaining red blood cells were lysed by hypotonic lysis. […] For siRNA experiments, cells were first incubated with an OriGene 3-mer LANCL2 siRNA or scrambled control suspended within ViromerGreen transfection reagent for 6 hours. […] Cells were stimulated with PMA and ionomycin six hours prior to assay.
(§3) Whole blood was obtained from Crohn's disease patients, clinically categorized as mild to moderate disease.

[9] = test system: in vitro differentiated Tregs; test: STAT5a and FOXO1 phosphorylation by Western blot in in vitro differentiated Tregs; format: cell-based, mice
Description: Cells were also differentiated in the presence of inhibitors for PTEN (SF1670) or STATS (STAT5i).

[10] = test system: naïve CD4+ T cells isolated from human PBMCs; test: Human naïve CD4+ T cells differentiated into Tregs; format: cell-based; settings: differentiated into Tregs in presence of BT-11, dose dependent
Description: as §2, §3

[11] = test system: C. difficile strain VPI 10463 (ATCC 43255); test: C. difficile infection animal model; format: in vivo, mice; settings: 8 mg/kg/d after infection
[12] = WT Treg pre-treated with BT-11, 24 h co-assay

## CC(C)(C)C(=O)Nc1ccc2c(c1)C(=O)C(=O)c1ccccc1-2 [SF1670, reference compound]
[1]
  effects of BT-11 on CD25+ FOXP3+ and CD25+ Tbet+ cells with inhibitors: only prevented effects of BT-11 on CD25+ Tbet+ cells in IL-2 containing media

## O=C(c1cccc(-c2nc3ccccc3[nH]2)n1)N1CCN(C(=O)c2cccc(-c3nc4ccccc4[nH]3)n2)CC1 [BT-11, N,N-Bis(benzimidazolylpicolinoyl)piperazine]
[2]
  Treg cell differentiation: increased differentiation of Tregs
[3]; KO (Lancl2−/−) Treg pre-treated with BT-11
  proliferative index and TNFα/IFNγ expression: did not induce changes in either measure
[3]; [12]
  expression of TNFα and IFNγ by cytometric bead array: lowered
  proliferative index of CD4+ T cells (CFSE): lowered the proliferative index
[3]; WT Treg pre-treated with BT-11, after 24 h co-assay
  retention of Treg (FOXP3+IL10+) phenotype: greater retention of Treg (FOXP3+IL10+) phenotype
[4]
  pKd: 5.11
[5]; Lancl2ΔT mice treated with BT-11
  Th1 and Th17 cells in colonic LP: failed to induce characteristic reductions in Th1 and Th17 cells
[5]; Lancl2ΔT mice, seven-day DSS, oral BT-11
  efficacy in DSS model with loss of LANCL2 in CD4+ T cells: abrogated the efficacy of BT-11
[6]; 0.625 μM BT-11
  expression of P2rx7: significantly upregulated (P<0.05)
[6]; 48 hours of BT-11 treatment, significant at 0.625 μM
  expression of Socs2, Capn3, Irf7 and Lag3: dose-dependent increase
[7]; 8 mg/kg oral daily, at 10 weeks of age
  colonic leukocytic infiltration, epithelial erosion and mucosal thickening: reduced colonic leukocytic infiltration, epithelial erosion and mucosal thickening
[7]; 8 mg/kg oral daily, six weeks from four weeks of age
  disease activity (development of disease): prevented the development of disease throughout the six-week period; also recorded: decreases disease activity index
[7]; beginning after presentation of symptoms at 7 weeks of age
  efficacy when given therapeutically: displays efficacy when given therapeutically
[7]; colonic LP and MLN, 8 mg/kg oral daily
  percentages of IL-10-producing cellular subsets (CX3CR1+ macrophages, Treg cells): increased percentages of IL-10-producing cellular subsets
[7]; colonic gene expression and cytometric bead array
  inflammatory cytokines IFNγ, IL17A, IL6, TNFα, MCP1: Down-regulation of inflammatory cytokines
[7]; flow cytometry, 8 mg/kg oral daily
  Th1 and Th17 cells in colonic lamina propria and mesenteric lymph nodes: significant (P<0.05) reductions
[7]; oral treatment
  whole colon Lancl2 expression: upregulated whole colon Lancl2
[8]; 24 hour culture with BT-11
  percentage of IL-10+ and FOXP3+ cells: higher percentage of IL-10+ and FOXP3+ cells
  percentages of TNFα+ and IFNγ+ cells: lower percentages of TNFα+and IFNγ+ cells
[8]; augmented (external) PEP concentration
  commitment to effector phenotypes (IFNγ+ cells): prevented cells from an increased commitment to effector phenotypes
[9]; base Treg differentiation media and with IL-2 or IL-12
  STAT5a phosphorylation: phosphorylated in a greater ratio
[9]; base media and media containing IL-2, but not IL-12
  FOXO1 phosphorylation: similarly affected
[10]
  stability-associated Treg markers (Lag3, Socs2, Irf7, P2rx7, Capn3, Ikzf2): upregulation of stability-associated Treg markers
[11]
  burden of C. difficile within the colon: did not induce a decrease in the burden of C. difficile
  colonic pathology including infiltration of leukocytes: reduced colonic pathology
  mortality: complete protection against mortality
  neutrophils, Th1 and Th17 cells within the lamina propria: reduced neutrophils, Th1 and Th17 cells
  regulatory T cells within the lamina propria: increase in regulatory T cells
[11]; from day 2 onward
  disease activity scores: lower disease activity scores
